Tests used:
MAPKs 1 and 2 = assay: Activation of MAPKs in FaO cells; assay type: cell-based, rat; conditions: 5 mins., EB 200 μg/ml, insulin 600 ng/ml
Protocol: (§1) FIG. 9 is the tyrosine phosphorylation of the IR cascade in Fao cells: A--Immunoblot analysis: Fao cells were deprived of serum for 20 hours, then incubated with EB, ATA, at 200 μg/ml or insulin at 600 ng/ml for 5 mins. Cell extracts were subjected to immunoprecipitation with antibodies to: IR β-subunit (αIR), IRS-1 (αIRS-1) and to IRS-2 (αIRS-2). The immunoprecipitates and total cell extracts were analyzed by SDS-PAGE. Proteins were transferred to nitrocellulose papers, and phosphotyrosine containing proteins were probed with anti-phosphotyrosine antibodies (αP-Tyr), antibody to the 85-kDa subunit of PI3-kinase (αp85) and antibodies to active MAPK (α active MAPK). The immunoblots were visualized by ECL (Amersham).
Nitrocellulose blots of proteins were incubated with the antibodies, and proteins were detected by enhanced chemiluminescence using horseradish peroxidase-labeled protein A, horseradish peroxidase-labeled anti rabbit IgG or horseradish peroxidase-labeled anti-mouse IgG.
In the rat hepatoma cell line FaO, EB and insulin, enhanced IRS-1 and IRS-2 tyrosine phosphorylation and their association with the 85-kDa regulatory subunit of the PI-kinase (FIG. 9A). PI3-kinase activity increases following its association with IRS-1 and IRS-2 (FIG. 9C). MAPKs 1 and 2 were activated by EB and insulin (FIG. 9A).

[1] = high doses; cited from earlier work
IRS-1 = IRS-1 tyrosine phosphorylation and association with p85 in FaO cells; assay type: cell-based, rat; conditions: 5 mins., EB 200 μg/ml, insulin 600 ng/ml
Protocol: as §1
(§2) MCF-7 cells were grown in 35 or 100 mm dishes in DMEM with 5% bovine fetal serum. Rat hepato FaO cells were grown in RPMI 1640 medium supplemented with 10% fetal calf serum. Subconfluent monolayers of MCF-7 cells or FaO cells, were deprived of serum for 20 hours prior to each experiment. The medium was removed, and cells were incubated at 37° C. under the conditions as indicated for each experiment. […]
(§3) Nitrocellulose blots of proteins were incubated with the antibodies, and proteins were detected by enhanced chemiluminescence using horseradish peroxidase-labeled protein A, horseradish peroxidase-labeled anti rabbit IgG or horseradish peroxidase-labeled anti-mouse IgG. […]

[2] = test system: IR, IRS-1 and the 85-kDa regulatory subunit of PI3-kinase; assay: In vivo tyrosine phosphorylation of the IR cascade in rat liver; conditions: Sprague-Dawley male rats, portal vein injection, EB 20 mg/rat, insulin 1 u/rat
Protocol: A--Immunoblot analysis. Rat liver extracts were subjected to immunoprecipitation and blotting with the indicated antibodies, as described in the legend to FIG. 9A.
(§4) EB (20 mg/rat) or insulin (1 u/rat) was injected into about 120 g weighing Sprague-Dawley male rats, via the portal vein. Control rats were injected with saline (SAL) alone. The rats were killed and the livers excised and frozen in liquid nitrogen at the indicated times.

PI3-kinase = assay: In vivo PI3-kinase activity in rat liver; conditions: Sprague-Dawley male rats, portal vein, 5 mins. after injection, EB 20 mg/rat, insulin 1 u/rat
Protocol: B--Induction of PI3-kinase. PI3-kinase activity, 5 mins. after injection was assayed as described in FIG. 9C. The results are representative of 2 to 4 independent experiments.
as §4

IRS-2 = IRS-2 tyrosine phosphorylation and association with p85 in FaO cells; assay type: cell-based, rat; conditions: 5 mins., EB 200 μg/ml, insulin 600 ng/ml
Protocol: as §1, §2, §3

Cc1cc(-c2ccc(N=Nc3ccc4c(S(=O)(=O)O)cc(S(=O)(=O)O)c(N)c4c3O)c(C)c2)ccc1N=Nc1ccc2c(S(=O)(=O)O)cc(S(=O)(=O)O)c(N)c2c1O [EB, Evan's Blue]
Activation of MAPKs 1 and 2 (MAPKs 1 and 2): activated
Toxicity to humans [1]: non-toxic to humans at high doses
IRS-1 tyrosine phosphorylation and association with the 85-kDa regulatory subunit of PI-kinase (IRS-1): enhanced
Tyrosine phosphorylation of IR, IRS-1 and 85-kDa subunit of PI3-kinase in liver [2]: phosphorylated tyrosines of IR, IRS-1 and the 85-kDa of the regulatory subunit of PI3-kinase
PI3-kinase activity in liver (PI3-kinase): increased
IRS-2 tyrosine phosphorylation and association with the 85-kDa regulatory subunit of PI-kinase (IRS-2): enhanced

Reference: US6020374A, “Biologically active synthetic dye compounds” (priority 1998, dated 2000)
